This note sets out measurements from patent US11439615B2, “Lipoxin and lipoxin analogue mediated neuroprotection and treatments” (University Health Network, priority 2017, dated 2022).

One experiment concerns HT22 cells. Description: Mitosox mitochondrial oxidative stress in glutamate challenged HT22 cells. Type of experiment: cell-based. Conditions: 1 μM, HT22 cells challenged with glutamate, vs vehicle. The method, then: HT22 cells challenged with glutamate were then assayed for mitochondrial oxidative stress using the Mitosox reagent, in combination with 1 μM LXA4, LXB4, and the LXA4 receptor ALX/FPR2 agonists Quinc-1 and Mmk-1.

A further experiment relates to primary RGCs. Description: Primary RGCs under serum deprivation, cell and neurite survival (β3-tubulin). Type of experiment: cell-based, rat. Conditions: 1 μM, 48 hours of serum and supplement deprivation. On the procedure: For astrocytes: Primary mature retinal astrocytes (RA) were isolated and cultured as previously described (46). Briefly, eyes were dissected out of adult Wistar rats and placed in ice-cold MEM-H17 media. Isolated retinas were digested by shaking in MEM-H17 containing papain and DNAse, followed by trituration to disperse cell-aggregates. When cultures reached confluence, the cells were placed on a rotating shaker for 6-8 hours to remove microglia and then re-plated. A glial-specific expression profile was confirmed by probing the cultures with a panel of glia microglia and neuronal markers (44). For RGCs: RGCs were purified using magnetic MicroBeads (Miltenyi Biotec, Germany) according to the manufacturer's protocol. Briefly; retinal cell suspensions were prepared from 8-10 day old rats and incubated with CD90.1 microbeads, and then carefully washed with DPBS/BSA buffer. The suspension was centrifuged at 130×g and the supernatant aspirated. Cells were then incubated with biotinylated depletion antibodies against microglia and endothelial cells. The labeled cell suspension was then incubated with magnetic Anti-Biotin MACSiBead™ Particles, and placed in a weak magnetic field. The pre-enriched cell suspension was centrifuged, and resuspended in fresh DPBS/BSA buffer and applied to a MACs MS separation column in the presence of a strong magnetic field to select for CD90.1-bound RGCs. To increase RGC purity, the eluted fraction was enriched over a second column. Purified RGCs were eluted and plated on poly-D-lysine coated dishes. The cells were cultured in Neurobasal-A media (Gibco) supplemented with 2% calf serum, B27, L-glutamine, BDNF, CNTF, forskolin and pen/strep.
To further confirm direct lipoxin activity in primary neurons, the ability of LXA4 or LXB4 to protect primary RGCs was tested. RGCs were isolated by immunopanning according to established methods. The cells were subjected to serum deprivation (SD), and then stained for β3-tubulin to quantify cell and neurite survival. Under normal serum, the RGCs extended an extensive network of neurites. […]

In experiment [1] the test system is dopaminergic SH-SY5Y cells. The experiment is described as follows: Mitochondrial oxidative stress in SH-SY5Y cells challenged with paraquat. In kind it is cell-based. The conditions noted are these: paraquat (PQ) induced oxidative stress, vs vehicle.
Experiment [2] relates to retinal ganglion cell neurons (RGCs). Description: Mouse acute retinal insult model (intravitreal kainic acid), RGC survival / GCL apoptosis. Type of experiment: in vivo. Conditions: 2 μl of 10 μM intravitreally one hour prior to retinal KA insult; RBPMS counts. The method, then: Male C57BLL/6 mice, 4-6 weeks of age, were purchased from Taconic or Jackson labs. All experimental protocols were approved by the UHN and UC Berkeley ACUC in accordance with applicable regulations. Mice were anesthetized by intraperitoneal injection of ketamine/xylazine. Intravitreal injections with 10 mM kainic acid (KA) were performed as previously described (45). Briefly, a 30-gauge needle was inserted tangentially into the vitreous and replaced with a Hamilton syringe to inject a volume of 2 μL, followed by application of ophthalmic antibiotic ointment (BNP, Vetoquinol). In some experiments, 10× concentrated ACM or test compounds were injected intravitreally one hour prior to the KA injection in concentrations as follows: LXA4 and LXB4 at 10 μM, Zileuton at 2 μg/ul, and WRW4 at 15 μM, all dissolved in PBS. Mice were euthanized by CO2 asphyxiation 18 hours post KA treatment and the eyes fixed in 4% paraformaldehyde. In all experiments n refers to the number of animals tested.
To quantify the extent of apoptosis, a well-established method was used to count the number of TUNEL-positive nuclei in the ganglion cell layer (GCL) and expressed it as a fraction of the total GCL nuclei (50-54). TUNEL labeling was performed according to the manufacturer's instructions (DeadEnd; Promega). Briefly, cryostat sections were fixed with 4% PFA for 5 minutes and washed in PBS. Equilibration buffer was added, and rTdT reaction mix was applied to each slide and incubated at 37° C. for 60 min. Following the rTdT reaction, slides were washed in 2×SSC and PBS and finally mounted with glycerol-based medium. For RGC survival, RBPMS-positive cells in the GCL were counted and expressed as a fraction of GCL nuclei. For each eye, at least five central retinal sections were analyzed at the level of the optic nerve stretching to each ora serrata, and the results averaged, as previously described (42).
In order to test the influence of the transplanted cells on inner retinal pathology, RA's were transplanted as above. After 16 days retinas were challenged with an acute metabolic injury by injection of kainic acid (KA). […]
Retinal astrocyte neuroprotection is mediated through secreted factors that include a small molecule component enriched in LXA4 and LXB4. […] This time, survival of RGCs was specifically assessed by probing for the selective marker RBPMS, along with complementary TUNEL staining, and quantified as previously. As expected, extensive RGC loss was detected in KA challenged eyes injected with cell-free control media incubated under the same conditions as ACM (FIG. 2A). […]

For the next experiment, the system named is primary cortical neurons. Description: Primary cortical neurons under paraquat oxidative stress, neuron number. Type of experiment: cell-based. The conditions noted are these: n=5. The text has this:
Quantification of neuron number following oxidative stress from the redox cycling compound paraquat in primary cortical neurons.

Take `CCCCC[C@H](O)/C=C/C=C\C=C\C=C\[C@@H](O)[C@@H](O)CCCC(=O)O` [LXA4, 5S,6R,15S-trihydroxy-7E,9E,11Z,13E-eicosatetraenoic acid]: the “mitochondrial oxidative stress (Mitosox)” value with HT22 cells is given as “reduce mitochondrial oxidative stress”. Further, in the experiment on primary RGCs, the “neuron survival following serum deprivation” value was “significant rescue”. The “mitochondrial oxidative stress / mitochondria stabilisation” value in experiment [1] was “stabilize mitochondria”. The “increase of RGC survival compared to vehicle control” value in experiment [2] is 37%. Besides, in the experiment with primary cortical neurons, the “neuron number following oxidative stress from paraquat” value is “have activities”.
`CCCCC[C@H](O)[C@H](O)/C=C/C=C/C=C\C=C\[C@@H](O)CCCC(=O)O` [LXB4, 5S,14R,15S-trihydroxy-6E,8Z,10E,12E-eicosatetraenoic acid]: the “mitochondrial oxidative stress (Mitosox)” value in the experiment with HT22 cells is listed as “reduce mitochondrial oxidative stress”. In addition, in the experiment on primary RGCs, the “neurite degeneration following serum deprivation (intact neurite ratio)” value is given as “strongly rescued” and the “neuron survival following serum deprivation” value is recorded as “significant rescue”. The “mitochondrial oxidative stress / mitochondria stabilisation” value in experiment [1] was “stabilize mitochondria”. Moreover, in experiment [2], the “increase of RGC survival compared to vehicle control” value came to 50%. For the same compound, the “neuron number following oxidative stress from paraquat” value in the experiment on primary cortical neurons was “have activities”.
